Laboratory results from patent publication US20240002520A1, “TREATMENT OF CASTLEMAN DISEASE” (THE TRUSTEES OF THE UNIVERSITY OF PENNSYLVANIA, priority 2020, published 2024).

Tests used:
[1] = test system: iMCD; conditions: literature case reports; cited from earlier work
[2] = test system: CXCL13; experiment: Serum proteomics (SomaLogic SOMAscan) during siltuximab therapy, phase II study; type: in vivo, human
Description: Methods. Clinical data and serum samples were collected as part of NCT01024036. We measured serum protein analytes in the 52 subjects who were treated with anti-IL6 therapy, as well as the 26 patients in the control arm, at day 1, day 8, and day 64 of therapy (infusions administered every 21 days). Serum samples from 44 healthy donors were also analyzed. Of the 1,305 analytes measured using SomaLogic SOMAscan, 1,178 passed QC and were included in analyses. Each analyte was log 2 transformed and capped at the 2.5th and 97.5th percentiles. Response to anti-IL6 therapy was determined by independent review in NCT01024036. Data processing was performed using the Medidata Rave Omics machine learning platform and R v3.4.4.
Linear mixed effects models were used to detect whether kinetic changes in protein expression were associated with anti-IL6 response. Upon running the full model with the selected covariates, the p-values of the interaction between time point and response were used to test for differences between responders and nonresponders.
A separate model was fitted using each protein, and False Discovery Rates (FDR) were estimated by the Benjamini-Hochberg method with alpha <0.05.

[3] = test system: CXCL13; experiment: Serum CXCL13 levels (absolute quantification, RBM) in validation cohort, siltuximab phase I study; type: in vivo, human
Text: Samples collected in real-world practice were included to better represent the full spectrum of iMCD. We obtained samples from 60 patients with diseases that overlap in clinical and pathological presentation with iMCD, including HHV8-associated MCD (N=20), HL (N=20), and RA (N=20), which are caused by viral, neoplastic, and autoimmune mechanisms, respectively, and 44 healthy individuals. […] All serum samples from the phase I and the phase II studies were collected and processed following respective standardized protocols.
For the 23 samples in the validation cohort, Rules Based Medicine (RBM) DiscoveryMap v1.0 was used to measure 190 serum analytes by a microsphere-based, multiplexed immunoassay platform.^18 RBM values were converted to standardized units and log 2 transformed. Of 190 proteins measured by RBM, 154 can be mapped to targets in the Somalogic platform, and 140 remained for analysis after filtering out low-quality targets on both platforms.
A […] was generated to identify 17% as the optimal reduction in CXCL13 levels to maximize sensitivity and specificity of this indicator (FIGS. 7 & 14). Specifically, if a patient has a 17% or greater reduction in CXCL13 levels, then the patient is highly likely to respond (FIGS. 15-16, Table 4). The proteins from patients in the discovery cohort described supra were quantified using a relative quantification while the protein quantification in the validation described in Table 4 utilized absolute quantification.

[4] = test system: iMCD patients; conditions: cited from earlier work
[5] = test system: iMCD patients; experiment: Siltuximab phase II study (NCT01024036): durable symptomatic and tumor response criteria; type: in vivo, human
Description: Clinical and laboratory data were collected at the time of sample draw for iMCD patients. To assess disease activity, we adapted a previously published disease activity score using C-reactive protein, hemoglobin, and albumin.

[6] = test system: CD19+CD27-IgD+B cells; experiment: In vitro treatment of flow-sorted iMCD patient B cells, RNA sequencing and geneset enrichment analysis of Hallmark pathways; type: cell-based, human; conditions: serum plus rhCXCL13 compared to serum only
Description: An in vitro experiment was performed that included flow sorting CD19+CD27-IgD+B cells from peripheral blood mononuclear cells (PBMCs) derived from an iMCD patient and treating the CD19+CD27-IgD+B cells with either (A) serum only, (B) serum plus recombinant human CXCL13 (rhCXCL13) to assess the effects of CXCL13 on iMCD patient B cells, or (C) serum, rhCXCL13, and anti-CXCL13 (anti-CXCL13) antibody to assess the effects of this blocking antibody. Each of these samples had geneset enrichment analysis performed of the Hallmark pathways on RNA sequencing data.

[7] = Non-Responders (N = 13), Day 43

Molecule: C=CC[C@@H]1/C=C(\C)C[C@H](C)C[C@H](OC)[C@H]2O[C@@](O)(C(=O)C(=O)N3CCCC[C@H]3C(=O)O[C@H](/C(C)=C/[C@@H]3CC[C@@H](O)[C@H](OC)C3)[C@H](C)[C@@H](O)CC1=O)[C@H](C)C[C@@H]2OC [tacrolimus]
- reported activity in iMCD [1]: potential activity

Molecule: siltuximab
- CXCL13 levels in non-responders ([2]; by day 64): remained elevated
- CXCL13 levels in siltuximab responders ([2]; by day 64): decreased to levels approaching the healthy donor range
- 9 serum proteins (IgA, BCMA, NPS-PLA2, ART, IL-18 BPa, CD5L, b2-Microglobulin, CXCL13, NRP1) in responders compared to non-responders ([2]; day 8, seven days after first siltuximab administration): significantly decreased
- CXCL13, Median (IQR) ([3]; Non-Responders (N = 13), Day 22/29, baseline 155 (79, 293)): 249 (73.1, 466) pg/ml
- CXCL13, Mean (SD) ([3]; Non-Responders (N = 13), Day 22/29, baseline 234 (240)): 337 (381) pg/ml
- CXCL13, Mean (SD) [3, 7]: 229.1 (190.3) pg/ml
- CXCL13, Median (IQR) [3, 7]: 218 (62, 371) pg/ml
- CXCL13, Median (IQR) ([3]; Responders (N = 10), Day 22/29, baseline 116 (57, 258)): 41.1 (23.5, 62) pg/ml
- CXCL13, Mean (SD) ([3]; Responders (N = 10), Day 22/29, baseline 241 (361)): 71.5 (94.5) pg/ml
- CXCL13, Mean (SD) ([3]; Responders (N = 10), Day 43): 94.8 (70.6) pg/ml
- CXCL13, Median (IQR) ([3]; Responders (N = 10), Day 43): 94.4 (29.6, 147) pg/ml
- patients who met response criteria ([4]; Phase II study NCT01024036, assessed after a minimum of 48 weeks): one-third
- iMCD patients who did not meet primary response criteria ([4]; siltuximab phase II registrational study): 66%
- patients with lymph node response by Cheson criteria who also achieved durable symptomatic response [5]: 18 of 20

B1: rhCXCL13: recombinant human CXCL13 (protein, UniProt O43927 23-109, looked up)
C-X-C motif chemokine 13: VLEVYYTSLRCRCVQESSVFIPRRFIDRIQILPRGNGCPRKEIIVWKKNKSIVCVDPQAEWIQRMMEVLRKRSSSTLPVPVFKRKIP
- pathways previously found up-regulated in iMCD (IL6-JAK-STAT3, mTORC1, Interferon alpha response, interferon gamma response, complement, TNFα signaling via NFKb) [6]: up-regulated
